According to patent EP0067565A1, “Pharmaceutically active compounds” (BEECHAM GROUP PLC, priority 1981, dated 1982):

What was measured:
rats = assay: Increase in intragastric pressure; type: in vivo; conditions: dose level of 1.0 mg/kg s.c.; conscious but restrained rats; average height of pressure waves, 40 minute period after administration vs pre-dose; Student's t test
Protocol: Intragastric pressure changes were recorded from previously starved conscious but restrained rats using a saline filled catheter inserted into the lumen of the stomach via a permanent gastric fistula. The catheter was connected to a physiological pressure transducer and pressure changes recorded on a hot wire pen recorder. In each animal a pre-dose period of 40 minutes was allowed to obtain a measure of spontaneous activity. An index of activity was obtained by measuring the average height of pressure waves during 10 minute periods. Values for 4 such periods were obtained during assessment of spontaneous activity and for 40 minute period after administration of compound. Student's "t" test was applied to the difference in average values obtained for spontaneous and post compound activity.

dog = assay: Anti-emetic activity in the dog (apomorphine-induced vomiting); type: in vivo; conditions: compound subcutaneously 30 minutes prior to apomorphine HC1 0.1 mg/kg subcutaneously; for ED50: Canis lupus familiaris, sc, read-out: ED50 values for inhibition of the vomiting response
Protocol: Compounds were administered subcutaneously 30 minutes prior to administration of a standard dose of apomorphine HC1 (0.1 mg/kg subcutaneously) and the vomiting response compared to that obtained when the same animals were dosed with apomorphine HC1 and vehicle only. The ED50 values for inhibition of the vomiting response determined for compound 11 and 13 were 1.0 mg/kg; for compound 33, 0.1 mg/kg and for compound 35, 0.01 mg/kg.

Molecule	index of activity post administration (rats)	ED50 (dog)	ED50 values for inhibition of the vomiting response (dog)
COc1cc(N)c(Cl)cc1C(=O)N[C@@H]1C[C@@H]2CCCN2[C@@H](C)C1 (racemic) [Compound 11, (±) 4-Amino-5-chloro-2-methoxy-rd-[7'β-(9'α-methyl-1'-aza-5α-H-bicyclo[4,3,0]nonyl)]benzamide]	significantly increased	1 mg/kg	–
COc1cc(N)c(Cl)cc1C(=O)N[C@H]1C[C@@H]2CCCN2[C@H](C)C1 (racemic) [Compound 9, (±) 4-Amino-5-chloro-2-methoxy-N-[7'α-(9'β-methyl-1'-aza-5'α-H-bicyclo[4,3,0]nonyl)]benzamide]	significantly increased	–	–
CC[C@H]1C[C@H](NC(=O)c2cc(Cl)c(N)cc2OC)C[C@@H]2CCCN12 (racemic) [Compound 33, (±) 4-Amino-5-chloro-2-methoxy-N-[7'β-(9'α-ethyl-1'-aza-5'α-H-bicyclo[4,3,0]nonyl)]benzamide]	–	0.1 mg/kg	–
(±) 4-Amino-5-chloro-2-methoxy-N-[7'β-(9'α-isopropyl-1'-aza-5'-α-H-bicyclo[4,3,0]nonyl)]benzamide [Compound 35]	–	–	0.01 mg/kg
COc1cc(N)c(Cl)cc1C(=O)N[C@@H]1C[C@@H]2CCCN2[C@H](C)C1 (racemic) [Compound 8, (±) 4-Amino-5-chloro-2-methoxy-N-[7'β-(9'β-methyl-1'-aza-5'α-H-bicyclo[4,3,n]nonyl)]benzamide]	significantly increased	–	–
COc1cc(N)c(Cl)cc1C(=O)N[C@H]1C[C@@H]2CCCN2[C@@H](C)C1 (racemic) [Compound 13, (±) 4-Amino-5-chloro-2-methoxy-N-[7'α-(9'α-methyl-1'-aza-5α-H-bicyclo[4,3,0]nonyl)]benzamide]	–	1 mg/kg	–
